Measured values published in patent publication US10183914B2 (BAYER CROPSCIENCE AKTIENGESELLSCHAFT, priority 2014, dated 2019).

What was measured:
[1] = system: Triticum aestivum (spring); assay: Pre-emergence herbicidal effect and crop plant compatibility; format: in vivo; conditions: 3 weeks
Outline: (§1)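 Pre-emergence greenhouse test: seeds sown in sandy loam, compounds (WP or EC) sprayed onto covering soil as aqueous suspension/emulsion at 600 to 800 L/ha water with 0.2% wetting agent. Damage scored visually after 3 weeks versus untreated controls as percent efficacy (100% = plants dead).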

Zea mays [2] = assay: as above; format: in vivo; conditions: 3 weeks
Outline: as §1

Oryza sativa [3] = assay: as above; format: in vivo; conditions: 3 weeks
Outline: as §1

Stellaria media = assay: Pre-emergence herbicidal effect; format: in vivo; conditions: 3 weeks
Outline: as §1

Setaria viridis [4] = assay: Pre-emergence herbicidal effect; format: in vivo; conditions: 3 weeks
Outline: as §1

Echinochloa crus-galli [5] = assay: Pre-emergence herbicidal effect; format: in vivo; conditions: 3 weeks
Outline: as §1

Matricaria inodora = assay: Pre-emergence herbicidal effect; format: in vivo; conditions: 3 weeks
Outline: as §1

Viola tricolor = assay: Pre-emergence herbicidal effect; format: in vivo; conditions: 3 weeks
Outline: as §1

Veronica persica = assay: Pre-emergence herbicidal effect; format: in vivo; conditions: 3 weeks
Outline: as §1

Polygonum convolvulus = assay: Pre-emergence herbicidal effect; format: in vivo; conditions: 3 weeks
Outline: as §1

Abutilon theophrasti = assay: Pre-emergence herbicidal effect; format: in vivo; conditions: 3 weeks
Outline: as §1

Lolium multiflorum [6] = assay: Pre-emergence herbicidal effect; format: in vivo; conditions: 3 weeks
Outline: as §1

Amaranthus retroflexus = assay: Pre-emergence herbicidal effect; format: in vivo; conditions: 3 weeks
Outline: as §1

[7] = logp (HCOOH), physicochemical characterization
[8] = system: Triticum aestivum (spring); assay: Post-emergence herbicidal effect and crop plant compatibility; format: in vivo; conditions: visual scoring after about 3 weeks
Outline: (§2)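 Greenhouse-grown plants at the one-leaf stage (2–3 weeks after sowing) were sprayed with WP or EC formulations in water at 600–800 L/ha plus 0.2% wetting agent. About 3 weeks later, efficacy was scored visually against untreated controls: 100% = plants dead, 0% = like control.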

Brassica napus = assay: as above; format: in vivo; conditions: 80 g/ha, visual scoring after about 3 weeks
Outline: as §2

Zea mays [9] = assay: as above; format: in vivo; conditions: visual scoring after about 3 weeks
Outline: as §2

Oryza sativa [10] = assay: as above; format: in vivo; conditions: visual scoring after about 3 weeks
Outline: as §2

Alopecurus myosuroides [11] = assay: Post-emergence herbicidal effect; format: in vivo; conditions: 320 g/ha, visual scoring after about 3 weeks
Outline: as §2

Setaria viridis [12] = assay: Post-emergence herbicidal effect; format: in vivo; conditions: 320 g/ha (dose by row order of upper half), scoring after about 3 weeks
Outline: as §2

Echinochloa crus-galli [13] = assay: Post-emergence herbicidal effect; format: in vivo; conditions: visual scoring after about 3 weeks
Outline: as §2

Avena fatua [14] = assay: Post-emergence herbicidal effect; format: in vivo; conditions: 320 g/ha, visual scoring after about 3 weeks
Outline: as §2

Ipomoea purpurea [15] = assay: Post-emergence herbicidal effect; format: in vivo; conditions: scoring after about 3 weeks
Outline: as §2

Lolium multiflorum [16] = assay: Post-emergence herbicidal effect; format: in vivo; conditions: 320 g/ha, visual scoring after about 3 weeks
Outline: as §2

Alopecurus myosuroides [17] = assay: Pre-emergence herbicidal effect; format: in vivo; conditions: 320 g/ha, 3 weeks
Outline: as §1

Avena fatua [18] = assay: Pre-emergence herbicidal effect; format: in vivo; conditions: 320 g/ha, 3 weeks
Outline: as §1

Ipomoea purpurea [19] = assay: Pre-emergence herbicidal effect; format: in vivo; conditions: 320 g/ha, 3 weeks
Outline: as §1

| SMILES | ZEAMX herbicidal activity in percent (Zea mays [2]; 80 g/ha) [%] | ORYSA herbicidal activity in percent (Oryza sativa [3]; 80 g/ha) [%] | ORYSA herbicidal activity in percent (Oryza sativa [3]; 320 g/ha) [%] | STEME herbicidal activity in percent (Stellaria media; 320 g/ha) [%] | SETVI herbicidal activity in percent (Setaria viridis [4]; 320 g/ha) [%] | ECHCG herbicidal activity in percent (Echinochloa crus-galli [5]; 320 g/ha) [%] | MATIN herbicidal activity in percent (Matricaria inodora; 320 g/ha) [%] | VIOTR herbicidal activity in percent (Viola tricolor; 80 g/ha) [%] | VIOTR herbicidal activity in percent (Viola tricolor; 320 g/ha) [%] | VERPE herbicidal activity in percent (Veronica persica; 80 g/ha) [%] | VERPE herbicidal activity in percent (Veronica persica; 320 g/ha) [%] | POLCO herbicidal activity in percent (Polygonum convolvulus; 320 g/ha) [%] | ABUTH herbicidal activity in percent (Abutilon theophrasti; 320 g/ha) [%] | LOLMU herbicidal activity in percent (Lolium multiflorum [6]; 320 g/ha) [%] | AMARE herbicidal activity in percent (Amaranthus retroflexus; 320 g/ha) [%] | logp (HCOOH) [7] | post-emergence efficacy TRZAS ([8]; 80 g/ha) [%] | post-emergence efficacy TRZAS ([8]; 320 g/ha) [%] | post-emergence efficacy ZEAMX (Zea mays [9]; 80 g/ha) [%] | post-emergence efficacy ZEAMX (Zea mays [9]; 320 g/ha) [%] | also measured |
| --- | --- | --- | --- | --- | --- | --- | --- | --- | --- | --- | --- | --- | --- | --- | --- | --- | --- | --- | --- | --- | --- |
| Cc1ccc2c(c1)[C@H](Nc1ncc3c(n1)CC(c1ccc(F)cc1)CC3=O)[C@@H](C)C2 (stereo partly drawn) [2.52] | 0 | 0 | 20 | 100 | 70 | 100 | 100 | 100 | 100 | 90 | 100 | 60 | 0 | 90 | 100 | oily; logp (HCOOH): 4.87; 1H-NMR (CDCl3, 400 MHZ, δ in ppm): 1.25 (t, 3H, CH3); | 0 | 0 | 0 | 0 | TRZAS herbicidal activity in percent ([1]; 80 g/ha): 0%; TRZAS herbicidal activity in percent ([1]; 320 g/ha): 30%; ZEAMX herbicidal activity in percent (Zea mays [2]; 320 g/ha): 10%; post-emergence efficacy BRSNW (Brassica napus): 20%; post-emergence efficacy ORYSA (Oryza sativa [10]; 80 g/ha): 0%; post-emergence efficacy ORYSA (Oryza sativa [10]; 320 g/ha): 0% |
| Cc1ccc2c(c1)[C@H](Nc1ncc3c(n1)CC(C)(C)CC3=O)[C@@H](C)C2 [2.45] | 10 | 0 | 10 | 100 | 100 | 100 | 90 | 100 | 100 | 100 | 100 | 100 | 80 | 100 | 100 | oily; logp (HCOOH): 4.23; 1H-NMR (CDCl3, 400 MHZ, δ in ppm): 1.10 (m, 6H, | 10 | 10 | 0 | 0 | post-emergence efficacy ALOMY (Alopecurus myosuroides [11]): 80%; post-emergence efficacy SETVI (Setaria viridis [12]): 90%; post-emergence efficacy ECHCG (Echinochloa crus-galli [13]; 80 g/ha): 100%; post-emergence efficacy ECHCG (Echinochloa crus-galli [13]; 320 g/ha): 100%; post-emergence efficacy AVEFA (Avena fatua [14]): 80%; post-emergence efficacy PHBPU (Ipomoea purpurea [15]; 80 g/ha (dose by row order of upper half)): 100%; post-emergence efficacy PHBPU (Ipomoea purpurea [15]; 320 g/ha (dose by row order of upper half)): 100%; post-emergence efficacy LOLMU (Lolium multiflorum [16]): 100%; STEME herbicidal activity in percent (Stellaria media; 80 g/ha): 100%; ALOMY herbicidal activity in percent (Alopecurus myosuroides [17]): 90%; SETVI herbicidal activity in percent (Setaria viridis [4]; 80 g/ha): 100%; ECHCG herbicidal activity in percent (Echinochloa crus-galli [5]; 80 g/ha): 100%; AVEFA herbicidal activity in percent (Avena fatua [18]): 80%; PHBPU herbicidal activity in percent (Ipomoea purpurea [19]): 90%; MATIN herbicidal activity in percent (Matricaria inodora; 80 g/ha): 90%; POLCO herbicidal activity in percent (Polygonum convolvulus; 80 g/ha): 100%; ABUTH herbicidal activity in percent (Abutilon theophrasti; 80 g/ha): 80%; LOLMU herbicidal activity in percent (Lolium multiflorum [6]; 80 g/ha): 80%; AMARE herbicidal activity in percent (Amaranthus retroflexus; 80 g/ha): 100%; post-emergence efficacy ORYSA (Oryza sativa [10]; 80 g/ha): 20% |
